For the assay, the target named is human IRAK4 (Homo sapiens (Human), UniProt Q9NWZ3). Put plainly: IRAK4 kinase inhibition, Transcreener fluorescence polarization (ADP detection). The note with it: recombinant full-length His6-IRAK4; 1.25 nM IRAK4; 125 μM ATP; 90 min; ATP Km 642 μM. It is filed as biochemical. How it is done: Compounds were assayed for inhibition of human IRAK4 and IRAK1 catalytic activity using recombinant enzyme produced from insect cells. Full-length IRAK4 protein, carrying an N-terminal His6-Tag, was obtained from Life Technologies (Carlsbad, Calif., USA). The IRAK1 construct was produced internally and was comprised of IRAK1 residues Arg194 to Ser712, preceded by an NH2-terminal His6 tag and the coding sequence for glutathione-S-transferase.
human IRAK4, sequence (Q9NWZ3 whole entry, the tested form may be a part): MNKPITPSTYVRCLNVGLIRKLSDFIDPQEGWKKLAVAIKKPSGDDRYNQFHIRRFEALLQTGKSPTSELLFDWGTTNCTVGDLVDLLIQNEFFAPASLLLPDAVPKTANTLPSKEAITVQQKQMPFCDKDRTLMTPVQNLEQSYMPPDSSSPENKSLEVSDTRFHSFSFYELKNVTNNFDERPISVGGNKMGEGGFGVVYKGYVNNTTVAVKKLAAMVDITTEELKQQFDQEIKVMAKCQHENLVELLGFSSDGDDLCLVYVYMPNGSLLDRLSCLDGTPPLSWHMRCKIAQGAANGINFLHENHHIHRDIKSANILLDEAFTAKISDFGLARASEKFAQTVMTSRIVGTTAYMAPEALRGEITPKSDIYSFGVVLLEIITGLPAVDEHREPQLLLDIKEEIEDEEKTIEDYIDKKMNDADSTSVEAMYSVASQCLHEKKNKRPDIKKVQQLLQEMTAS
Kinase activities were assayed using the Transcreener-Fluorecescence polarization platform (BelBrook Labs, Madison, Wis., USA) that measures amounts of the reaction product, ADP.
384 well assay plates spotted with compound received 4 μl of a 2× substrate (ATP+peptide) mix in reaction buffer, followed by 4 μl of 2× enzyme diluted in reaction buffer.
The Ki is the dissociation constant of the complex between target and ligand, obtained from inhibition or displacement. For the compound `Cc1cncc(C(=O)Nc2cc3c(cc2N2CCOCC2)OC(C)(C)C3)n1` [Example 7, N-(2,2-Dimethyl-6-morpholino-2,3-dihydrobenzofuran-5-yl)-6-methylpyrazine-2-carboxamide], the Ki stood at 0.043 µM.

With `CC1(C)Cc2cc(NC(=O)c3csc4c(N)ncnc34)c(N3CCOCC3)cc2O1` [Example 3, 4-Amino-N-(2,2-dimethyl-6-morpholino-2,3-dihydrobenzofuran-5-yl)thieno[3,2-d]pyrimidine-7-carboxamide], the Ki stood at 0.013 µM.

On to `CC1(C)Cc2cc(NC(=O)c3c[nH]c4cccnc34)c(N3CCOCC3)cc2O1` [Example 28, N-(2,2-Dimethyl-6-morpholino-3H-benzofuran-5-yl)-1H-pyrrolo[3,2-b]pyridine-3-carboxamide], for which the inhibition constant Ki worked out at 0.47 µM.

Consider `CC1(C)Cc2cc(NC(=O)c3csc(N4CCOCC4)n3)c(N3CCOCC3)cc2O1` [Example 36, N-(2,2-Dimethyl-6-morpholino-2,3-dihydrobenzofuran-5-yl)-2-morpholinothiazole-4-carboxamide], for which the Ki was found to be 0.0038 µM.

Consider `Cc1cnc(C(=O)Nc2cc3c(cc2N2CCOCC2)OC(C)(C)C3)[nH]1` [Example 44, N-(2,2-Dimethyl-6-morpholino-2,3-dihydrobenzofuran-5-yl)-5-methyl-1H-imidazole-2-carboxamide], for which the Ki stood at 0.29 µM.

With `CC1(C)Cc2cc(NC(=O)c3coc(N4CCOCC4)n3)c(N3CCOCC3)cc2O1` [Example 37, N-(2,2-Dimethyl-6-morpholino-2,3-dihydrobenzofuran-5-yl)-2-morpholinooxazole-4-carboxamide], the Ki was 0.0052 µM.

In the case of `CC1(C)Cc2cc(NC(=O)c3ccc(O)nn3)c(N3CCOCC3)cc2O1` [Example 2, N-(2,2-Dimethyl-6-morpholino-2,3-dihydrobenzofuran-5-yl)-6-hydroxypyridazine-3-carboxamide], the Ki came to 0.03 µM.

With `Cc1nc(C(=O)Nc2cc3c(cc2N2CCOCC2)OC(C)(C)C3)ccc1C#N` [Example 5, 5-Cyano-N-(2,2-dimethyl-6-morpholino-2,3-dihydrobenzofuran-5-yl)-6-methylpicolinamide], the Ki turned out to be 0.025 µM.

For the compound `CC1(C)Cc2cc(NC(=O)c3coc(C4CC4)n3)c(N3CCOCC3)cc2O1` [Example 38, 2-Cyclopropyl-N-(2,2-dimethyl-6-morpholino-2,3-dihydrobenzofuran-5-yl)oxazole-4-carboxamide], the Ki turned out to be 0.0074 µM.

On to `CC1COCCN1c1nc(C(=O)Nc2cc3c(cc2N2CCOCC2)OC(C)(C)C3)cs1` (centres unmarked) [Example 32, N-(2,2-Dimethyl-6-morpholino-2,3-dihydrobenzofuran-5-yl)-2-(3-methylmorpholino)thiazole-4-carboxamide], for which the Ki was 0.019 µM.

As for `COc1cc(-n2ccc(C(=O)Nc3cc4c(cc3N3CCOCC3)OC(C)(C)C4)n2)ccn1` [Example 60, N-(2,2-Dimethyl-6-morpholino-3H-benzofuran-5-yl)-1-(2-methoxy-4-pyridyl)pyrazole-3-carboxamide], the Ki turned out to be 0.0082 µM.

As for `CC1(C)Cc2cc(NC(=O)c3ccn(-c4ccnc(C#N)c4)n3)c(N3CCOCC3)cc2O1` [Example 63, 1-(2-Cyano-4-pyridyl)-N-(2,2-dimethyl-6-morpholino-3H-benzofuran-5-yl)pyrazole-3-carboxamide], the Ki came out at 0.016 µM.

For `CC1(C)Cc2cc(NC(=O)c3cccc(F)n3)c(N3CCOCC3)cc2O1` [Example 8, N-(2,2-Dimethyl-6-morpholino-2,3-dihydrobenzofuran-5-yl)-6-fluoropicolinamide], the Ki came to 0.045 µM.

Regarding `Cn1nnc2c(C(=O)Nc3cc4c(cc3N3CCOCC3)O[C@](C)(CO)C4)cncc21` (single isomer, unassigned) [Example 68], the Ki amounted to 0.07 µM.

Regarding `CC1(C)Cc2cc(NC(=O)c3cccc4[nH]nnc34)c(N3CCOCC3)cc2O1` [Example 4, N-(2,2-Dimethyl-6-morpholino-2,3-dihydrobenzofuran-5-yl)-1H-benzo[d][1,2,3]triazole-4-carboxamide], the Ki is 0.0071 µM.

As for `C[C@@]1(CO)Cc2cc(NC(=O)c3ccc4cccnn34)c(N3CCOCC3)cc2O1` (single isomer, unassigned) [Example 18], the Ki came to 0.0034 µM.

For the compound `CC1(C)Cc2cc(NC(=O)c3cccc4[nH]cnc34)c(N3CCOCC3)cc2O1` [Example 20, N-(2,2-Dimethyl-6-morpholino-2,3-dihydrobenzofuran-5-yl)-1H-benzo[d]imidazole-4-carboxamide], the Ki stood at 0.03 µM.

On to `C[C@]1(CO)Cc2cc(NC(=O)c3ccc4cncnn34)c(N3CCOCC3)cc2O1` (single isomer, unassigned) [Example 24], for which the Ki turned out to be 0.0077 µM.

On to `CC1(C)Cc2cc(NC(=O)c3ccnc(S(C)(=O)=O)n3)c(N3CCOCC3)cc2O1` [Example 9, N-(2,2-Dimethyl-6-morpholino-2,3-dihydrobenzofuran-5-yl)-2-(methylsulfonyl)pyrimidine-4-carboxamide], for which the Ki was determined as 0.53 µM.

As to `CC1(C)Cc2cc(NC(=O)c3ccn(-c4ccnc(NCC(F)(F)F)c4)n3)c(N3CCOCC3)cc2O1` [Example 62, N-(2,2-Dimethyl-6-morpholino-3H-benzofuran-5-yl)-1-[2-(2,2,2-trifluoroethylamino)-4-pyridyl]pyrazole-3-carboxamide], the Ki stood at 0.017 µM.

With `Cc1ccc(-c2cc3c(cc2NC(=O)c2cnc(C)o2)CC(C)(C)O3)nc1` [Example 29, N-[2,2-Dimethyl-6-(5-methyl-2-pyridyl)-3H-benzofuran-5-yl]-2-methyl-oxazole-5-carboxamide], the Ki is 0.23 µM.

`C[C@H]1COCCN1c1nc(C(=O)Nc2cc3c(cc2N2CCOCC2)OC(C)(C)C3)co1` [Example 26, (S)-N-(2,2-Dimethyl-6-morpholino-2,3-dihydrobenzofuran-5-yl)-2-(3-methylmorpholino)oxazole-4-carboxamide]: the Ki was 0.035 µM.

In the case of `Cc1cc(-c2nc(C(=O)Nc3cc4c(cc3N3CCOCC3)OC(C)(C)C4)co2)ccn1` [Example 35, N-(2,2-Dimethyl-6-morpholino-2,3-dihydrobenzofuran-5-yl)-2-(2-methylpyridin-4-yl)oxazole-4-carboxamide], the Ki is 0.0014 µM.

As for `CC1(C)Cc2cc(NC(=O)c3cnsn3)c(N3CCOCC3)cc2O1` [Example 14, N-(2,2-Dimethyl-6-morpholino-2,3-dihydrobenzofuran-5-yl)-1,2,5-thiadiazole-3-carboxamide], the Ki came to 0.34 µM.

On to `C[C@]1(CO)Cc2cc(NC(=O)c3csc4cc(Cl)cnc34)c(N3CCOCC3)cc2O1` (stereo in doubt) [Example 56, (R)-6-Chloro-N-(2-(hydroxymethyl)-2-methyl-6-morpholino-2,3-dihydrobenzofuran-5-yl)thieno[3,2-b]pyridine-3-carboxamide], for which the Ki amounted to 0.037 µM.

In the case of `CC1(C)Cc2cc(NC(=O)c3coc(C(C)(C)C)n3)c(N3CCOCC3)cc2O1` [Example 41, 2-(tert-Butyl)-N-(2,2-dimethyl-6-morpholino-2,3-dihydrobenzofuran-5-yl)oxazole-4-carboxamide], the Ki was found to be 0.043 µM.

Turning to `CC1(C)Cc2cc(NC(=O)c3ccncn3)c(N3CCOCC3)cc2O1` [Example 46, N-(2,2-Dimethyl-6-morpholino-2,3-dihydrobenzofuran-5-yl)pyrimidine-4-carboxamide], the Ki stood at 0.14 µM.

Turning to `Cc1cn(-c2nc(C(=O)Nc3cc4c(cc3N3CCOCC3)OC(C)(C)C4)co2)cn1` [Example 33, N-(2,2-Dimethyl-6-morpholino-2,3-dihydrobenzofuran-5-yl)-2-(4-methyl-1H-imidazol-1-yl)oxazole-4-carboxamide], the Ki turned out to be 0.0037 µM.

Regarding `CC1(C)Cc2cc(NC(=O)c3ccccn3)c(N3CCOCC3)cc2O1` [Example 27, N-(2,2-Dimethyl-6-morpholino-2,3-dihydrobenzofuran-5-yl)picolinamide], the Ki came out at 0.042 µM.

For `CC1(C)Cc2cc(NC(=O)c3n[nH]c4cccnc34)c(N3CCOCC3)cc2O1` [Example 45, N-(2,2-Dimethyl-6-morpholino-2,3-dihydrobenzofuran-5-yl)-1H-pyrazolo[4,3-b]pyridine-3-carboxamide], the Ki came to 0.49 µM.

In the case of `Cn1ccc(C(=O)Nc2cc3c(cc2N2CCOCC2)O[C@](C)(CO)C3)n1` (single isomer, unassigned) [Example 16], the Ki is 0.048 µM.

As for `Cc1nc(C(=O)Nc2cc3c(cc2N2CCOCC2)OC(C)(C)C3)cs1` [Example 6, N-(2,2-Dimethyl-6-morpholino-2,3-dihydrobenzofuran-5-yl)-2-methylthiazole-4-carboxamide], the Ki is 0.038 µM.

With `CC1(C)COc2cc(C(=O)Nc3cc4c(cc3N3CCOCC3)OC(C)(CO)C4)nn2C1` (centres unmarked) [Example 54, N-[2-(Hydroxymethyl)-2-methyl-6-morpholino-3H-benzofuran-5-yl]-6,6-dimethyl-5,7-dihydropyrazolo[5,1-b][1,3]oxazine-2-carboxamide], the Ki came to 0.81 µM.

In the case of `CC1(C)Cc2cc(NC(=O)c3ncc(C(C)(C)C)[nH]3)c(N3CCOCC3)cc2O1` [Example 47, 5-(tert-Butyl)-N-(2,2-dimethyl-6-morpholino-2,3-dihydrobenzofuran-5-yl)-1H-imidazole-2-carboxamide], the inhibitory constant (Ki) amounted to 0.2 µM.

With `CC1(C)Cc2cc(NC(=O)c3ccn(-c4ccc(=O)[nH]c4)n3)c(N3CCOCC3)cc2O1` [Example 66, N-(2,2-Dimethyl-6-morpholino-3H-benzofuran-5-yl)-1-(6-oxo-1H-pyridin-3-yl)pyrazole-3-carboxamide], the Ki came out at 0.014 µM.

Source of the values: patent US10899774B2, “IRAK4 modulators” (Genentech, Inc., priority 2017, dated 2021).
